Assay results taken from paper PMC8225905, “Activation and detoxification of cassava cyanogenic glucosides by the whitefly Bemisia tabaci” (Scientific Reports, 2021).

System: T1, BtSUC5
T1 construct: full-length ORF expressed in Drosophila S2 cells; secreted protein fraction (culture supernatant) assayed
Assay: LC-MS transglucosidation assay, S2 cell culture supernatant
Assay type: biochemical, Bemisia tabaci
Conditions: 1 M sucrose as glucosyl donor; phosphate buffer pH 7.0; 25 °C; 30 min; glucosyl acceptor

## CC(C)(C#N)O[C@@H]1O[C@H](CO)[C@@H](O)[C@H](O)[C@H]1O [linamarin]
  Km: ~500 µM
